Patent US20240293344A1, “Unsaturated Hydroxamic Acid Derivatives and Their Use for the Treatment and Prevention of an Ammonia-Associated Disease or Disorder” (Versantis AG, priority 2021, published 2024)
Where two headings read alike, the source gives them in different places.

Experiments:
[1] = test system: S. typhimurium strains (TA98, TA100, TA1535, TA1537); assay: Ames test (Ames MPF Penta 1), S. typhimurium strains
Excerpt: A commercial microplate format test kit (Ames MPF™ Penta 1, Xenometrix, Switzerland) was used for this experiment. The most commonly used strains in the Ames tests, S. typhimurium with point mutations in the histidine operon and E. coli with mutations in the tryptophan operon were utilized as the model systems. The mutagenicity of the three hydroxamic acids was investigated in four S. typhimurium strains (TA98, TA100, TA1535, TA1537) and in the mixture of two E. coli strains (wp2 [pKM101] and wp2 uvrA) with and without metabolic activation (S9 fraction) according to the manufacturer's protocol.
Bacteria were exposed to 6 concentrations of the test compounds, solvent control (DMSO) and positive control substances (concentrations listed in Tables I-II below) for 90 min in the medium containing enough histidine for S. typhimurium or tryptophan for E. coli to support cell growth. After that, the cultures media were diluted with pH indicator solution lacking histidine or tryptophan and aliquoted into 48 wells of a 384-well plate. Within 48 hours, media containing cells that reverted to amino acid prototrophy turned yellow as bacteria metabolism reduced the pH of the media. The number of yellow wells containing revertant colonies was counted for each dose of the test compounds and compared to the solvent control.

bacterial urease = assay: Rat caecum content assay (urease inhibitory activity, ammonia production from urea); assay type: cell-based, bacteria of rat caecum content
Procedure: To evaluate the inhibitory activity of HAs, the inventors first established an in vitro assay using rat caecum content.
The use of caecum content samples for the initial screening of urease inhibitors allowed to rapidly identify stable and membrane permeable inhibitors that cover a broad spectrum of bacterial ureases present in the gastrointestinal tract.
According to the herein established protocol, rat caecum content provided by the ETH Phenomics center was diluted in 200 mM potassium phosphate monobasic buffer pH 6.8 and centrifuged at 100×g to remove large particles. The supernatant with dispersed bacteria was collected, mixed with urea and then incubated with an increasing range of inhibitor concentrations for 30 min at 37° C. with constant shaking. In this setup initial concentrations of bacteria and urea were adjusted to the values that lead to the production of ammonia at a final concentration of approximately 1000 μM. Bacterial urease converts urea to ammonia, which was quantified by an enzymatic assay (Ammonia assay, Randox Laboratories, UK).
The established assay was then used to evaluate the potency of commercially available HAs as well as synthesized HAs of the present disclosure. As most of the tested HAs have low aqueous solubility, cyclodextrins were used to prepare water-soluble formulations of the compounds. In this study, a stock solution of acetohydroxamic acid (AHA) was prepared in DMSO, and stock solutions of octanohydroxamic acid (OHA) and 2-octynohydroxamic acid (2-octynoHA) were prepared by dissolving them in aqueous solutions of 2-hydroxypropyl-p-cyclodextrin (HPβCD) in 1:2 and 1:4 molar ratios, respectively. The obtained mixtures were sonicated and heated at 37° C. until fully dissolved.
Besides 2-octynoHA, the urease inhibitory activity of other unsaturated alkylated HAs consisting of 8 carbons was assessed. These included 2-octenohydroxamic acid (2-octenoHA), 3-octenohydroxamic acid (3-octenoHA), 3-octynohydroxamic acid (3-octynoHA) and 7-octynohydroxamic acid (7-octynoHA). Prior to assessing potency in the rat caecum content assay, stock solutions of 2-octenoHA and 3-octenoHA were prepared using HPβCD solution (1:4 molar ratio of HA to HPβCD), stock solutions of 3-octynoHA and 7-octynoHA were prepared using mixture of 10% DMSO and HPβCD solution. The 7-octynoHA presented a lower potency than unsaturated alkylated HAs having a double/triple bond at positions 2 or 3.

Caco-2 cells [2] = conditions: human, 24 h
Procedure: (§1) The compounds used were 2-octynoHA, OHA (Tokyo Chemical Industry Co., Ltd.; Japan) and AHA (Sigma-Aldrich, St. Louis, MO) The human colorectal adenocarcinoma cell line Caco-2 was obtained from American Type Culture Collection. The cells were cultured in complete medium containing DMEM (Dulbecco's modified Eagle's medium) high glucose, GlutaMax™, pyruvate (Thermo Fisher Scientific, Waltham, MA) supplemented with 10% fetal bovine serum (Thermo Fisher Scientific, Waltham, MA), 1% penicillin-streptomycin (Thermo Fisher Scientific, Waltham, MA) and 15 mM HEPES (Thermo Fisher Scientific, Waltham, MA). The cells were incubated at 37° C. in a humidified atmosphere with 5% CO2. Caco-2 cells were used in the experiments from passage 50 to 60 and were tested negative for mycoplasma.
(§2) The cytotoxicity of HAs was assessed using Cell Counting Kit-8 (CCK-8, Sigma-Aldrich, St. Louis, MO), a colorimetric assay based on tetrazolium salt WST-8 which is reduced by dehydrogenases in cells to an orange-colored formazan. The absorbance of formazan at 450 nm is directly proportional to the number of living cells.
(§3) In order to test cytotoxicity of HAs, Caco-2 cells were seeded in a 96-well plate at a density of 5×10^3 cell/well and grown for 1 day. Then, cells were treated with an increasing range of inhibitors' concentrations and incubated for another 24 h at 37° C., 5% CO2. […] After incubation, cells were washed with phosphate buffered saline (Thermo Fisher Scientific, Waltham, MA), treated with DMEM without phenol red (Thermo Fisher Scientific, Waltham, MA) containing CCK-8 reagent and incubated for another 2 h at 37° C. in a humidified atmosphere with 5% CO2. The absorbance of medium at 450 nm was measured using Tecan Infinite M200 PRO plate reader. Caco-2 cell viability was calculated as a percentage of the medium control.

Caco-2 cells [3] = assay: Cytotoxicity in Caco-2 cells (CCK-8); conditions: 24 h; for Caco-2 cell viability (percentage of the medium control): 10 mM
Procedure: as §1, §2, §3

[4] = test system: mixture of E. coli strains (wp2 [pKM101] and wp2 uvrA); assay: Ames test (Ames MPF Penta 1), E. coli strain mixture; assay type: cell-based; conditions: with or without metabolic activation (S9)
Excerpt: A commercial microplate format test kit (Ames MPF™ Penta 1, Xenometrix, Switzerland) was used for this experiment. […] The mutagenicity of the three hydroxamic acids was investigated in four S. typhimurium strains (TA98, TA100, TA1535, TA1537) and in the mixture of two E. coli strains (wp2 [pKM101] and wp2 uvrA) with and without metabolic activation (S9 fraction) according to the manufacturer's protocol.

[5] = test system: N-Nitrosodiethylamine induced liver disease in rats; assay: In vivo efficacy in N-nitrosodiethylamine (DEN) induced liver disease in rats, blood ammonia; parameters: species or system rat; conditions: gavage twice a day from day 3, n=10
Procedure: Efficacy of 2-octynoHA was assessed in male Sprague Dawley rats (Beijing Vital River Laboratory Animal Technology Co., Ltd, China) in a model of acute liver disease. The liver damage was induced by reoccurring intraperitoneal injections of N-nitrosodiethylamine (DEN) 60 mg/kg on days 1, 3, 5, and 7.
Four groups of rats were included. The first control group was treated with a solution of HPβCD 270 mg/kg (n=10). The second group was treated with a suspension of rifaximin 30 mg/kg (n=10). The third group was treated with a suspension of rifaximin 60 mg/kg (n=10). The fourth group was treated with 15 mg/kg of 2-octynoHA dissolved in HPβCD solution (1:1 molar ratio of 2-octynoHA to HPβCD) (n=10). All groups received the treatment via gavage twice a day from day 3 to day 8. Blood samples were collected sublingually on days 0, 6 and 8. Blood ammonia level was measured in collected samples using PocketChem™ (Arkray, Japan).

[6] = test system: bile-duct ligated (BDL) rat model of hepatic encephalopathy; assay: In vivo efficacy in bile-duct ligated (BDL) rats, blood ammonia; conditions: 30 mg/kg twice a day by gavage in HPβCD solution, dropped from 53±30.31 μmol/L before treatment, n=4
Procedure: Efficacy of 2-octynoHA was evaluated in the bile-duct ligated (BDL) rat model, which is recommended by the International Society for Hepatic Encephalopathy and Nitrogen Metabolism (ISHEN) as an animal model of hepatic encephalopathy (HE) associated with chronic liver cirrhosis. This model is obtained by obstruction of the common bile duct that causes impairment of liver function and thereby development of hyperammonemia and low-grade HE.
In this study, on the DO blood ammonia levels were measured (n=4, 27.25±6.18 μmol/L) using PocketChem™ (Arkray, Japan) after which all rats were subjected to the BDL surgery. Right before surgery all animals were given injection of slow-release buprenorphine (lasting 72 h) between the shoulder blades. Then, animals were anesthetized with isoflurane in O2. Depth of anesthesia was checked by toe-pinching. Further, a midline incision was made (2 cm), and then the common bile duct was isolated of surrounding tissue, tightly ligated twice with silk suture and cut between the 2 ligations. Abdominal incision was closed with Vicryl™ 4-0 for muscle layers; skin was closed with staples and one drop of Vetbond™ tissue glue was applied to secure closing. Animals were then placed on heating pad for recovery. For the first 4 weeks post-surgery, animals were monitored for pain level, extent of jaundice, body weight (BW) and disease scores. […]

[7] = Pharmacokinetics in male beagle dogs (plasma); assay type: in vivo, dog; conditions: for bioavailability: dog
Excerpt: The main objective of the experiment was to quantify the levels of 2-octynoHA in the plasma of male beagle dogs following I.V. administration of a solution of 2-octynoHA with HPβCD (1:1 molar ratio) (PK 1), oral (P.O.) administration of 2-octynoHA formulated in an uncoated gelatin capsule size 0 (PK 2), and oral administration of 2-octynoHA formulated in a coated (Eudragit S100 15% w/w, triethyl citrate 5% w/w, isopropyl alcohol 40% w/w, ethanol 40% w/w) gelatin capsule size 0 for colonic delivery (PK 3) (Table Ill). For each of the studies, three animals were administered with a single dose of the corresponding treatment. Plasma samples were collected at pre-determined time points (Table Ill).
In PK 1, the plasma samples were extracted by protein precipitation prior to analysis. In brief, 40 μL plasma was precipitated with 2 volumes (80 μL) of an organic solvent solution consisting of acetonitrile:methanol (80:20 v/v) containing 1% formic acid. Samples were vortex-mixed and centrifuged at 13,000 rpm. 100 μL of supernatant were further diluted with 100 μL water containing 0.1% formic acid (final dilution factor of 6×). The sample extracts were transferred into a 96-well plate. Four μL plasma extract were injected for chromatographic separation and high resolution/accurate mass analysis. Separation was performed on a 5 cm C18 UPLC column, detection and quantification were performed on a quadrupole time-of-flight (QTof) mass spectrometer in the positive ion mode.
In both PK 2 and PK 3, prior to extraction, plasma samples (ca. 700 μL) were acidified by adding 15 μL of 50% phosphoric acid in water. Then, plasma samples (40 μL) were extracted by protein precipitation by adding 2 volumes (80 μL) of an organic solvent solution consisting of acetonitrile:methanol (80:20 v/v) containing 0.2% formic acid.
Samples were vortex-mixed and centrifuged at 13,000 rpm for 5 min. 100 μL of supernatant were further diluted with 100 μL water containing 0.1% formic acid (final dilution factor of 6×). The sample extracts were transferred into a 96-well plate. Five μL were injected for chromatographic separation and further mass analysis. The chromatographic separation was performed on a 10 cm C18 UPLC column and the MS detection and quantification was performed on a quadrupole time-of-flight (QTof) mass spectrometer in the positive ion mode.
Concentrations of 2-octynoHA was quantified based on the calibration curve. In the PK 1, 2-octynoHA was detected at the m/z 156.1 with the retention time (RT) of 4.12 min. […] Concentration values below the lower limit of quantitation (LLOQ) (i.e., lowest amount of an analyte in a sample that can be quantitatively determined with suitable precision and accuracy) were considered equal to zero.

[8] = Stability of 2-octynoHA in solution (UHPLC-UV); assay type: physicochemical
Procedure: Preliminary stability of 2-octynoHA was assessed in HBSS pH 7.4 supplemented with HEPES 15 mM and compared to stability of the molecule in ultra-pure water.
Both solutions of 2-octynoHA were prepared to a final concentration of 0.5 mg/mL. 2-octynoHA was incubated for ca. 20 min at 37° C. until fully dissolved in the corresponding media. Once solutions were prepared, they were subjected to UHPLC-UV analysis within ca. 1 h while being kept at room temperature. For chromatographic separation and spectrophotometric analysis, 2 μL of each solution were injected. The chromatographic separation was performed on a 10 cm Polar C18 UHPLC column with a mobile phase composed of water, acetonitrile and formic acid 0.1%.
Detection was performed on a diode array detector by monitoring UV absorbance at 200 nm. 2-octynoHA was detected at 200 nm with RT=5.36 min in both solutions.
In order to identify the product of degradation, a solution of 2-octynoHA 10 mM was prepared in phosphate buffer (KH2PO4 200 mM pH 6.8) and left to incubate overnight at 37° C. […] The product of degradation was then extracted with chloroform, the organic phase was collected, dried over Na2SO4 and filtered. The solvent was evaporated, the obtained substance was dissolved in deuterated dimethyl sulfoxide (DMSO-d6) for ^1H NMR analysis.

[9] = rat caecum content with urea, 30 min at 37° C., pH 6.8; read-out: IC50, bacterial urease inhibitory activity
[10] = TA98, TA100, TA1535, TA1537, with or without metabolic activation (S9)

For `CC(=O)NO` [AHA, N-hydroxyacetamide], the “mutagenicity (reverse mutations)” value ([1]; TA98, TA100 and TA1537 strains at 5 and 10 mM) was “mutagenic potential was detected”, the IC50 (bacterial urease; [9]) was 7300 µM and the “concentration up to which no cytotoxicity was detected” value (Caco-2 cells [2]) was “up to 10 mM”.

For `OO` [hydrogen peroxide, reference compound], the “Caco-2 cell viability (percentage of the medium control)” value (Caco-2 cells [3]) was 1.79±6%.

With `CCCCCCCC(=O)NO` [OHA, N-hydroxyoctanamide, reference compound] the “mutagenicity (reverse mutations)” value [1, 10] was “not mutagenic”, the “Caco-2 cell viability (percentage of the medium control)” value (Caco-2 cells [3]) was “no live cells were observed” and the “mutagenicity (reverse mutations)” value [4] was “not mutagenic”. It also gave an IC50 (bacterial urease; [9]) of 230 µM.

In the case of `C#CCCCCCC(=O)NO` [7-octynoHA, 7-octynohydroxamic acid], the “potency compared with unsaturated alkylated HAs having a double/triple bond at positions 2 or 3” value (bacterial urease; rat caecum content assay, FIG. 6) is reported as “lower potency”.

In the case of `CO[C@H]1/C=C/O[C@@]2(C)Oc3c(C)c(O)c4c(O)c(c5c(nc6cc(C)ccn65)c4c3C2=O)NC(=O)/C(C)=C\C=C\[C@H](C)[C@H](O)[C@@H](C)[C@@H](O)[C@@H](C)[C@H](OC(C)=O)[C@@H]1C` [rifaximin, reference compound], the “blood ammonia level on day 6” value ([5]; 30 mg/kg suspension) is reported as 44 ± 22.4 µM.

In the case of `CCCCCC#CC(=O)NO` [2-octynoHA, N-hydroxyoct-2-ynamide], the “mutagenicity (reverse mutations)” value [1, 10] is reported as “not mutagenic up to 1 mM”, the “mean blood ammonia level three days after initiating treatment” value [6] is reported as 11 ± 5.68 µmol/L and the “Caco-2 cell viability (percentage of the medium control)” value (Caco-2 cells [3]) is reported as “ca. 6%”. For the same molecule, the “concentration up to which no cytotoxicity was detected” value (Caco-2 cells [3]; Caco-2 cells) was “up to 1 mM”, the “mutagenicity (reverse mutations)” value [4] was “not mutagenic up to 1 mM” and the plasma concentration ([7]; PK 3: P.O., 300 mg per dog, coated (Eudragit S100) gelatin capsule for colonic delivery) was “below LLOQ”. It also gave a bioavailability ([7]; male, beagle, plasma, po, 300 mg, uncoated gelatin capsule, dose-adjusted AUC0-t of PK 1 and PK 2, read-out: bioavailability after oral administration) of about 4.5%, a bioavailability ([7]; male, beagle, plasma, po, delivery via a colonic capsule, read-out: oral bioavailability) of about 0% and a Tmax ([7]; male, beagle, plasma, po, PK 2: P.O., 300 mg per dog, uncoated gelatin capsule) of 30 min. The AUC(0-t) ([7]; male, beagle, plasma, po, PK 2: P.O., 300 mg per dog, uncoated gelatin capsule, read-out: AUC0-t (t=12 h)) was about 213 ng·h/mL, the AUC(0-t) ([7]; plasma, iv, PK 1: I.V., 100 mg per dog, solution with HPβCD (1:1), male beagle dogs, read-out: AUC0-t (t=4 h)) was about 1780 ng·h/mL and the IC50 (bacterial urease; read-out: IC50, bacterial urease inhibitory activity; rat caecum content with urea, 30 min at 37° C., pH 6.8) was about 38 µM. The “blood ammonia level on day 6” value ([5]; 15 mg/kg in HPβCD solution) was 20 ± 9.6 µM, the “degradation in solution (UHPLC-UV)” value ([8]; 0.5 mg/mL in HBSS pH 7.4 with HEPES 15 mM, ca. 20 min at 37° C., analysed within ca. 1 h at room temperature) was “degraded” and the “degradation in solution (UHPLC-UV)” value ([8]; 0.5 mg/mL in ultra-pure water, ca. 20 min at 37° C., analysed within ca. 1 h at room temperature) was “No degradation”. The “degradation in solution (UHPLC-UV)” value ([8]; 10 mM in KH2PO4 200 mM pH 6.8, overnight at 37° C.) was “Complete degradation”.
